Measurements published in ChEMBL document CHEMBL5131431, “Effect of removal of the 14-hydroxy group on the affinity of the 4,5-epoxymorphinan derivatives for orexin and opioid receptors” (Bioorg Med Chem Lett, 2022).

Assays:
[1] = molecular target: Kappa-type opioid receptor (Homo sapiens, UniProt P41145); experiment: Displacement of […] from human KOR expressed in HEK293 cell membrane; type: cell membranes
[2] = molecular target: Delta-type opioid receptor (Homo sapiens, UniProt P41143); experiment: Displacement of […] from human DOR expressed in HEK293 cell membrane; type: cell membranes
[3] = molecular target: Mu-type opioid receptor (Homo sapiens, UniProt P35372); experiment: Displacement of [3H]DAMGO from human MOR expressed in HEK293 cell membrane; type: cell membranes
[4] = species: Homo sapiens; experiment: Selectivity index, ratio of Ki for displacement of […] from human DOR expressed in HEK293 cell membrane to displacement of […] from human KOR expressed in HEK293 cell membrane
[5] = molecular target: T1, Orexin/Hypocretin receptor type 1 (Homo sapiens, UniProt O43613); experiment: Binding affinity to OX1R (unknown origin) by calcium assay
T1 sequence (O43613 whole entry): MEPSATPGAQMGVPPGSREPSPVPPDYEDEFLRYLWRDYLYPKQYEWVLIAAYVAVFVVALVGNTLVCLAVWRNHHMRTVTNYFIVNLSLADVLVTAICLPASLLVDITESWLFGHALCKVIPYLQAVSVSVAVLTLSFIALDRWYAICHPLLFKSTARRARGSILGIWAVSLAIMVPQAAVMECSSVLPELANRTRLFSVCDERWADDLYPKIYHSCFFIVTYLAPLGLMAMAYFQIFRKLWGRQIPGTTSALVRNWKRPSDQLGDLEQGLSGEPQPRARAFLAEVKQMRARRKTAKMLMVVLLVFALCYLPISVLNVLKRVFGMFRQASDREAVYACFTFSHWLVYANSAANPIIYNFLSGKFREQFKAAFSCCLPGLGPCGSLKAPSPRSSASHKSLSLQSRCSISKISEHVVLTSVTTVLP

[6] = species: Homo sapiens; experiment: Selectivity index, ratio of Ki for displacement of [3H]DAMGO from human MOR expressed in HEK293 cell membrane to displacement of […] from human KOR expressed in HEK293 cell membrane

Mu-type opioid receptor, sequence (P35372 whole entry): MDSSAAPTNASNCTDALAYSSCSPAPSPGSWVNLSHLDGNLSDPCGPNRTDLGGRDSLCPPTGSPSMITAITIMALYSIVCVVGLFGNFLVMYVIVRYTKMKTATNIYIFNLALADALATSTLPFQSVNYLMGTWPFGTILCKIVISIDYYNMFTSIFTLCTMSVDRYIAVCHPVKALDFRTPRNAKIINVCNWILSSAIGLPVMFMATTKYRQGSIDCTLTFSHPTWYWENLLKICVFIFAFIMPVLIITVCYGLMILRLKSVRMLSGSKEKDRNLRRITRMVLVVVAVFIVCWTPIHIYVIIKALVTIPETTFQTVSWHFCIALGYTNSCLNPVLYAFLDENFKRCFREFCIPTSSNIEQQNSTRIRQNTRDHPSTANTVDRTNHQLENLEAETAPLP
Kappa-type opioid receptor, sequence (P41145 whole entry): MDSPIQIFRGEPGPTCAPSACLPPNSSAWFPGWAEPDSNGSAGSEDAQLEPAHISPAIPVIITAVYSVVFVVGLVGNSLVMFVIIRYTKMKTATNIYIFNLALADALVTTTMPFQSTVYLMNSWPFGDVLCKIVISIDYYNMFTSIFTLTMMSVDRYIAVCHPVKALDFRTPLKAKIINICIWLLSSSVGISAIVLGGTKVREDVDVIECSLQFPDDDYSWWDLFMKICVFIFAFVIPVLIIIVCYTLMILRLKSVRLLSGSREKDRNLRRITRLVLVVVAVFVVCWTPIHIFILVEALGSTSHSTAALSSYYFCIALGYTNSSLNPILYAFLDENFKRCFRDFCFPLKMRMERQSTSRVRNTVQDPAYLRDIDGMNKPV
Delta-type opioid receptor, sequence (P41143 whole entry): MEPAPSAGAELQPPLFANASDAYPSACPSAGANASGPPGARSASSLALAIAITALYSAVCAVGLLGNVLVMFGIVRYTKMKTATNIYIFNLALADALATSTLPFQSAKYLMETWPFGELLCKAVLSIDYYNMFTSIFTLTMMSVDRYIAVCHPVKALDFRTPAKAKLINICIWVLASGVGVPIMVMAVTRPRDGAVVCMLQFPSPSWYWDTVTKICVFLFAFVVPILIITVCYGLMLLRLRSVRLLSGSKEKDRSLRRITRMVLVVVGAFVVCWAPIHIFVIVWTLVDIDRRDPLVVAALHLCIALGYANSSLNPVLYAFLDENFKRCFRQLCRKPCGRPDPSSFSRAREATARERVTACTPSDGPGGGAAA

Row | SMILES | Ki [1] | Ki [2] | Ki [3] | Ratio Ki [4] | Ki [5] | Ratio Ki [6] | IC50 [5]
1 | CN(C(=O)/C=C/c1ccoc1)[C@@H]1CCC2[C@H]3Cc4ccc(O)c5c4[C@@]2(CCN3CC2CC2)[C@H]1O5 (some centres undefined) | 0.0272 nM | 9.76 nM | 0.158 nM | 359 | 218 nM | 5.8 | 
2 | CN(C(=O)/C=C/c1ccoc1)[C@@H]1CCC2[C@H]3Cc4ccc(O)c5c4[C@@]2(CN3CC2CC2)[C@H]1O5 (some centres undefined) | 283 nM | > 10000 nM | > 10000 nM |  |  |  | > 10000 nM
3 | COc1ccc2c3c1O[C@H]1[C@H](N(C)C(=O)/C=C/c4ccoc4)CCC4[C@@H](C2)N(CC2CC2)C[C@@]341 (some centres undefined) |  |  |  |  |  |  | > 10000 nM
4 | CN(C(=O)/C=C/c1ccoc1)[C@@H]1CC[C@@]2(O)[C@H]3Cc4ccc(O)c5c4[C@@]2(CCN3CC2CC2)[C@H]1O5 [NALFURAFINE] |  | 36.5 nM | 0.7 nM |  |  |  | 
5 | CN(C(=O)/C=C/c1ccoc1)[C@@H]1CC[C@@]2(O)[C@H]3Cc4ccc(O)c5c4[C@@]2(CN3CC2CC2)[C@H]1O5 | > 5000 nM | > 5000 nM | > 5000 nM |  |  |  | 
6 | COc1ccc2c3c1O[C@H]1[C@H](N(C)C(=O)/C=C/c4ccoc4)CCC4[C@@H](C2)N(CC2CC2)CC[C@@]341 (some centres undefined) |  |  |  |  | 28.7 nM |  | 
7 | COc1ccc2c3c1O[C@H]1[C@H](N(C)C(=O)/C=C/c4ccoc4)CC=C4[C@@H](C2)N(CC2CC2)CC[C@]431 |  |  |  |  | 19 nM |  | 
8 | COc1ccc2c3c1O[C@H]1[C@H](N(C)C(=O)/C=C/c4ccoc4)CC=C4[C@@H](C2)N(CC2CC2)C[C@]431 |  |  |  |  |  |  | > 10000 nM
9 | CN(C(=O)/C=C/c1ccoc1)[C@@H]1CC=C2[C@H]3Cc4ccc(O)c5c4[C@@]2(CN3CC2CC2)[C@H]1O5 | 1410 nM | > 10000 nM | > 10000 nM |  |  |  | > 10000 nM
10 | CN(C(=O)/C=C/c1ccoc1)[C@@H]1CC=C2[C@H]3Cc4ccc(O)c5c4[C@@]2(CCN3CC2CC2)[C@H]1O5 | 0.0356 nM | 26.3 nM | 3.57 nM | 739 | 30.5 nM | 100 | 
